For data set [1] the following is noted: mouse, in vivo; for Plasma level of non-ester compound / AUC: po, 100 mg/kg. Here is the method:
The compounds of Examples 2, 4, 6, 7 and 8 and the 1-(ethoxycarbonyloxy)ethyl ester of compound [II] (briefly, compound A) are each administered orally to a mouse in a dose of 100 mg/kg in terms of non-ester compound, i.e., compound [II]. At 0.25, 0.5, 1.0 and 2.0 hours after administration, the concentration of the non-ester compound in the mouse plasma is determined by the cup assay using Proteus mirabilis Eb313 as the test organism and the area under the concentration-time curve for 0-2 hours (AUC) is calculated.
As control, the non-ester compound is administered subcutaneously to a mouse and the AUC value is similarly calculated.

The subject of data set [2] is gram-positive bacteria such as Staphylococcus aureus. The settings on record: cited from earlier work.
The subject of a further data set is bacteria. The settings on record: cited from earlier work.
Data set [3] has as its system gram-negative bacteria such as Escherichia coli, Klebsiella pneumoniae, Proteus vulgaris, Proteus mirabilis and Proteus morganii. The settings on record: cited from earlier work.

Read-outs that look alike come from different tables or passages of the source.

Turning to `CCOC(=O)OC(C)OC(=O)C1=C(CSc2nnnn2CCN(C)C)CS[C@@H]2[C@H](NC(=O)Cc3csc(N)n3)C(=O)N12` (stereo partly shown) [Compound A, 1-(ethoxycarbonyloxy)ethyl ester of compound [II], reference compound], the Bioavailability in data set [1] (120 min) worked out at 23.9%. The “Plasma level of non-ester compound” value is 14700 ng/mL in data set [1] (15 min), 9200 ng/mL in data set [1] (30 min), 2400 ng/mL in data set [1] (60 min) and 700 ng/mL in data set [1] (120 min). The same molecule gave an exposure (AUC) in data set [1] (120 min) of 9280 ng·h/mL.
`CC(C)CCOC(=O)OC(C)OC(=O)C1=C(CSc2nnnn2CCN(C)C)CS[C@@H]2[C@H](NC(=O)Cc3csc(N)n3)C(=O)N12` (stereo partly drawn) [Example 2, 1-(3-Methylbutoxycarbonyloxy)ethyl 7β-[2-(2-aminothiazol-4-yl)acetamido]-3-[[[1-(2-dimethylaminoethyl)-1H-tetrazol-5-yl]thio]methyl]ceph-3-em-4-carboxylate] showed a Bioavailability in data set [1] (120 min) of 90.8%. Moreover, the “Plasma level of non-ester compound” value in data set [1] (15 min) is 65800 ng/mL; in data set [1] (30 min), 28600 ng/mL; in data set [1] (60 min) it was 9660 ng/mL; in data set [1] (120 min), 1680 ng/mL. Further, the area under the curve (AUC) in data set [1] (120 min) amounted to 35300 ng·h/mL.
Take `CCC(CC)COC(=O)OC(C)OC(=O)C1=C(CSc2nnnn2CCN(C)C)CS[C@@H]2[C@H](NC(=O)Cc3csc(N)n3)C(=O)N12` (stereo partly drawn) [Example 4, 1-(2-Ethylbutoxycarbonyloxy)ethyl 7β-[2-(2-aminothiazol-4-yl)acetamido]-3-[[[1-(2-dimethylaminoethyl)-1H-tetrazol-5-yl]thio]methyl]ceph-3-em-4-carboxylate]: the Bioavailability in data set [1] (120 min) turned out to be 83.6%. Further, the “Plasma level of non-ester compound” value in data set [1] (15 min) was determined as 43900 ng/mL; in data set [1] (30 min) it was 39500 ng/mL; in data set [1] (60 min) it was 8730 ng/mL; in data set [1] (120 min), 220 ng/mL. The same molecule displayed an AUC in data set [1] (120 min) of 32400 ng·h/mL.
In data set [1] (120 min), `CCCC(C)COC(=O)OC(C)OC(=O)C1=C(CSc2nnnn2CCN(C)C)CS[C@@H]2[C@H](NC(=O)Cc3csc(N)n3)C(=O)N12` (stereo partly drawn) [Example 6, 1-(2-Methylpentyloxycarbonyloxy)ethyl 7β-[2-(2-aminothiazol-4-yl)acetamido]-3-[[[1-(2-dimethylaminoethyl)-1H-tetrazol-5-yl]thio]methyl]ceph-3-em-4-carboxylate] yielded a Bioavailability of 80.1%. Further, the “Plasma level of non-ester compound” value in data set [1] (15 min) amounted to 50200 ng/mL; in data set [1] (30 min) it was 31000 ng/mL; in data set [1] (60 min), 7310 ng/mL; in data set [1] (120 min) it was 2860 ng/mL. In data set [1] (120 min), the area under the curve (AUC) was found to be 31100 ng·h/mL.
On to `CC(OC(=O)OCC(C)(C)C)OC(=O)C1=C(CSc2nnnn2CCN(C)C)CS[C@@H]2[C@H](NC(=O)Cc3csc(N)n3)C(=O)N12` (stereo partly drawn) [Example 7, 1-(2,2-Dimethylpropoxycarbonyloxy)ethyl 7β-[2-(2-aminothiazol-4-yl)acetamido]-3-[[[1-(2-dimethylaminoethyl)-1H-tetrazol-5-yl]thio]methyl]ceph-3-em-4-carboxylate], for which the Bioavailability in data set [1] (120 min) was determined as 92.0%. Further, the “Plasma level of non-ester compound” value is 65700 ng/mL in data set [1] (15 min), 34500 ng/mL in data set [1] (30 min), 7230 ng/mL in data set [1] (60 min) and 1860 ng/mL in data set [1] (120 min). In data set [1] (120 min), this molecule displayed an AUC of 35700 ng·h/mL.
In data set [1] (120 min), `CCCC(C)OC(=O)OC(C)OC(=O)C1=C(CSc2nnnn2CCN(C)C)CS[C@@H]2[C@H](NC(=O)Cc3csc(N)n3)C(=O)N12` (stereo partly drawn) [Example 8, 1-(1-Methylbutoxycarbonyloxy)ethyl 7β-[2-(2-aminothiazol-4-yl)acetamido]-3-[[[1-(2-dimethylaminoethyl)-1H-tetrazol-5-yl]thio]methyl]ceph-3-em-4-carboxylate] had a Bioavailability of 110.6%. Also, the “Plasma level of non-ester compound” value in data set [1] (15 min) came to 62700 ng/mL; in data set [1] (30 min), 48900 ng/mL; in data set [1] (60 min), 11200 ng/mL; in data set [1] (120 min), 860 ng/mL. The exposure (AUC) in data set [1] (120 min) amounted to 42500 ng·h/mL.
Turning to `CN(C)CCn1nnnc1SCC1=C(C(=O)O)N2C(=O)[C@@H](NC(=O)Cc3csc(N)n3)[C@H]2SC1` [compound [II], 7β-[2-(2-aminothiazol-4-yl)acetamido]-3-[[[1-(2-dimethylaminoethyl]-1H-tetrazol-5-yl]thio]methyl]ceph-3-em-4-carboxylic acid], the antibacterial activity entry in data set [2] is on record as “potent antibacterial activity”; in the data set with bacteria, “strong antibacterial activity”; in data set [3], “potent antibacterial activity”. Further, the Bioavailability in data set [1] (sc, 120 min) was 100%.

Values taken from patent US4755598A, “1 '-(substituted)ethyl-7β-[2-(2-aminothiazol-4-yl)acetamido]-3-[[[1-(2 -dimethylaminoethyl)-1H-tetrazol-5-yl]thio]methyl]ceph-3-em-4-carboxylate derivatives having antibacterial utility” (Takeda Chemical Industries, Ltd., priority 1983, dated 1988).
